Where two headings read alike, the source gives them in different places.
Columns and labels:
Assay type in all cases: cell-based
SARS-CoV-2 = experiment: microbe, parasite or virus in culture; details: read-out: half effective concentration EC50 on activity of SARS-CoV-2
SARS-CoV-2 pseudovirus = experiment: microbe, parasite or virus in culture; details: Severe acute respiratory syndrome-related coronavirus, 293T/ACE2, 48 h, read-out: half inhibitory concentration IC50 to inhibit entering of the SARS-CoV-2 pseudovirus into a target cell
cell Vero-E6 = experiment: Cytotoxicity detection (CCK-8), cell Vero-E6; details: for toxic effect on the cell Vero-E6: 48 hours, CCK-8; for cytotoxicity: within the effective concentration range, cell not named
Description: (§1) • 1. Method: • 1) Cell inoculation: Cells Vero-E6 and 293T/ACE2 in a logarithmic growth period were taken, cell densities thereof were adjusted to 1^∗10^4 cells/well, and 100 µL/well thereof were respectively inoculated on a 96-well plate and cultured overnight. • 2) Drug concentration design: Before administration, a drug was diluted to nine concentration gradients with a DMEM medium containing fetal bovine serum of 2% of a total volume twice multiple proportions, and an initial concentration of the drug was set to 200 µM (200, 100, 50, 25, 12.5, 6.25, 3.125, 1.5625, 0.78125 µM), and 100 µL per well of a diluted drug was taken to be added into the cells Vero-E6 and 293T/ACE2 in the 96-well plate in 1), with a final volume of 200 µL per well. Triplicate wells were set for each drug concentration. A DMSO solvent treatment group was used as a blank control. • 3) Absorbance detection: After incubation in an incubator for 48 hours, 10 µL of a CCK-8 working solution was added into each well, and incubation continued to be conducted in the incubator for 3 hours. The absorbance at 450 nm was measured by a microplate reader. • 4) According to measured OD values, survival rates of the cells Vero-E6 and 293T/ACE2 under the action of various concentrations of the drug were calculated respectively compared with the control group. • 2.
(§2) • 1. Method: • 1) Cell inoculation: Cells Vero-E6 and 293T/ACE2 in a logarithmic growth period were taken, cell densities thereof were adjusted to 1^∗10^4 cells/well, and 100 µL/well thereof were respectively inoculated on a 96-well plate and cultured overnight in a 37°C cell incubator. • 2) Drug concentration design: Before administration, a drug was diluted to eight concentration gradients with a DMEM medium containing fetal bovine serum of 2% of a total volume twice multiple proportions. Cell Vero-E6: an initial concentration was set to 200 µM (200, 100, 50, 25, 12.5, 6.25, 3.125, 1.5625 µM), and 100 µL per well of a diluted drug was taken to be added into the cell Vero-E6 in the 96-well plate in 1), with a final volume of 200 µL per well. Triplicate wells were set for each drug concentration. A DMSO solvent treatment group was used as a blank control. Cell 293T/ACE2: an initial concentration was set to 100 µM (100, 50, 25, 12.5, 6.25, 3.125, 1.5625, 0.78125 µM), and 100 µL per well of a diluted drug was taken to be added into the cell 293T/ACE2 in the 96-well plate in 1), with a final volume of 200 µL per well. Triplicate wells were set for each drug concentration. A DMSO solvent treatment group was used as a blank control. • 3) Absorbance detection: After incubation in an incubator for 48 hours, 10 µL of a CCK-8 working solution was added into each well, and incubation continued to be conducted in the incubator for 3 hours. The absorbance at 450 nm was measured by a microplate reader. • 4) According to measured OD values, survival rates of the cells Vero-E6 and 293T/ACE2 under the action of various concentrations of the drug were calculated respectively compared with the control group.
• 1. Method: • 1) Cell inoculation: Cells Vero-E6 and 293T/ACE2 in a logarithmic growth period were taken, cell densities thereof were adjusted to 1^∗10^4 cells/well, and 100 µL/well thereof were respectively inoculated on a 96-well plate and cultured overnight. • 2) Drug concentration design: Before administration, a drug was diluted to nine concentration gradients with a DMEM medium containing fetal bovine serum of 2% of a total volume twice multiple proportions, and an initial concentration was set to 200 µM (200, 100, 50, 25, 12.5, 6.25, 3.125, 1.5625, 0.78125 µM), and 100 µL per well of a diluted drug was taken to be added into the cells Vero-E6 and 293T/ACE2 in the 96-well plate in 1), with a final volume of 200 µL per well. Triplicate wells were set for each drug concentration. […]

cell 293T/ACE2 = experiment: Cytotoxicity detection (CCK-8), cell 293T/ACE2; details: 48 hours
Description: as §1
as §2, with “Cell 293T/ACE2: an initial concentration was set to 100 µM (100, 50, 25, 12.5, 6.25, 3.125, 1.5625, 0.78125 µM), and 100 µL per well of a diluted drug was taken to be added into the cell 293T/ACE2 in the 96-well plate in 1), with a final volume of 200 µL per well. Triplicate wells were set for each drug concentration.” left out, “group. […]” for “group.”

[1] = Severe acute respiratory syndrome coronavirus 2, Vero C1008, 24 h
[2] = at 200 µM and within an effective concentration range
[3] = at 100 µM and within an effective concentration range

Compound	EC50 (SARS-CoV-2; [1])	IC50 (SARS-CoV-2 pseudovirus)	toxic effect on the cell Vero-E6 (cell Vero-E6; [2])	cytotoxicity (cell Vero-E6)	toxic effect on the cell 293T/ACE2 (cell 293T/ACE2; [2])	toxic effect on the cell Vero-E6 (cell Vero-E6; at 10 µM and within an effective concentration range)	toxic effect on the cell 293T/ACE2 (cell 293T/ACE2; at 2.5 µM and within an effective concentration range)	toxic effect on the cell Vero-E6 (cell Vero-E6; [3])	toxic effect on the cell 293T/ACE2 (cell 293T/ACE2; [3])	EC50 (SARS-CoV-2)
O=C(/C=C/c1ccc(O)c2oc(-c3ccc(O)c(O)c3)cc12)O[C@H](Cc1ccc(O)c(O)c1)C(=O)O [salvianolic acid C]	3410 nM	5900 nM	no obvious toxic effect	no obvious cytotoxicity	no obvious toxic effect					
Cc1cccc2c3c(ccc12)C1=C(C(=O)C3=O)[C@@H](C)CO1 [dihydrotanshinone I]	640 nM	680 nM		no obvious cytotoxicity		no obvious toxic effect	no obvious toxic effect			
C[C@H]1COC2=C1C(=O)C(=O)c1c2ccc2c1CCCC2(C)C [cryptotanshinone, Cryptotanshinone]	1460 nM			no obvious cytotoxicity				no obvious toxic effect		
O=C(O)[C@H](O)Cc1ccc(O)c(O)c1 [salvianic acid A]	1070 nM	2700 nM	no obvious toxic effect	no obvious cytotoxicity	no obvious toxic effect					
O=C(/C=C/c1ccc(O)c2c1[C@H](C(=O)O[C@H](Cc1ccc(O)c(O)c1)C(=O)O)[C@@H](c1ccc(O)c(O)c1)O2)O[C@H](Cc1ccc(O)c(O)c1)C(=O)O [salvianolic acid B]	55500 nM	416 nM	no obvious toxic effect	no obvious cytotoxicity					no obvious toxic effect	
Cc1coc2c1C(=O)C(=O)c1c-2ccc2c(C)cccc12 [Tanshinone I]				no obvious cytotoxicity				no obvious toxic effect		2980 nM

Source: EP4154878A1, “APPLICATION OF ACTIVE […] ROOT OF […] OR PHARMACEUTICALLY ACCEPTABLE SALT THEREOF IN PREPARING ANTIVIRAL DRUG” (priority 2020, dated 2021)
